Measured values from patent US20060194819A1, “Activation specific inhibitors of nf-kb and method of treating inflammatory processes in cardio-vascular diseases” (PROCORDE GMBH, priority 2003, published 2006).
Like-named read-outs stand apart in the source and are kept apart here.

Assays:
[1] = tested on: I KappaB alpha phosphorylation; assay: P-IkBalpha detection in Western blot of HeLa cell lysates after TNF alpha stimulation; assay type: cell-based; details: HeLa cells, 10 and 100 μM
Description: P-IkBα Detektion in Western-Blot Protocol: HeLa cells were maintained in Dulbecco's modified Eagle's medium (Invitrogen) supplemented with 10% fetal bovine serum, 2 mM L-glutamine, penicillin (50 units/ml) and streptomycin (50 μg/ml). 24 h before treatment with different compounds HeLa cells were plated at a density of 5×10^6 per well in 100-mm cell culture dishes to 90% confluences.
The cells were incubated with different drugs at the concentration indicated for 1 h, washed twice with PBS and stimulated with 20 ng/ml TNF alpha (Roche). After 7 min the cells were washed twice with ice cold PBS followed by scraping and transferring into a 1.5 ml micro centrifuge tube. After centrifugation by 2000 rpm for 2 min by 4° C. the PBS supernatant was removed and 200 μl lysis-buffer (10 mM Hepes, pH 7.9, 0.1% NP40, 10 mM, 300 mM Sucrose, 10 mM KCl, 15 mM MgCl2, 1 mM DTT, 0.5 mM PMSF and antipain, aprotinin, leupeptin each 0.75 μg/ml (Sigma) was added to the pellet. The resuspended pellet was incubated on ice for 5 min and centrifuged at 13000 g for 30 s. 30 μl of the supernatant, cytosolic extract, was diluted with Laemmli-buffer (2% SDS, 2% 2-Mercaptoethanol, 0.01% Bromophenol blue, 8% Glycerine), heated by 60° C. for 10 min and loaded to a 4-20% polyacrylamid gels (BioRad). After electrophoresis the proteins were transferred to a nitrocellulose membrane using the wet blotting technique. First the membrane was blocked with Roti-Block (Roth) and afterwards incubated with monoclonal antibodies against P-IkBalpha (Santa Cruz Biotechnology, used at 1:200 dilution). This incubation was followed by the appropriate horseradish peroxidase-conjugated secondary antibody (Dianova) at 1:10000 dilution. Antibody binding was visualized on x-ray film using the Western blot Chemiluminescent Reagent Detection Kit (Santa Cruz).

[2] = tested on: HeLa cells; assay: Cell viability, WST-1 assay; assay type: cell-based
Description: […] The medium was changed and 10 μL of the WST-1 reagent was added to each well. After 2 h the absorption of 450 nm was measured in an Elisa-reader.

[3] = tested on: ICAM expression in HUVEC cells; assay: ICAM expression in HUVEC cells by FACS analysis; assay type: cell-based; details: Homo sapiens, read-out: IC50 for inhibition of ICAM expression
Description: HUVEC cells were seeded in 6-well plates 1×10^6 cells/well. After 24 h the cells were treated with different concentration of compound 68. After 1 h the medium was removed and the cells incubated with either IL-1 (100 pg/ml) or TNF alpha (1 ng/ml) for a total of 4 h. Thereafter the cells were harvested with trypsin, washed with PBS and centrifuged with 1000 rpm for 5 min. The pellet was resuspended in 50 μl PBS and 5 μl CD54-PE antibody (anti-ICAM antibody from Beckman/Coulter/Immunotech). After washing twice in PBS, the ICAM cell surface expression was analysed by a FACScan (Becton Dickinson).

[4] = Solubility tests, 1.2 mg in 500 μl of each solvent; assay type: physicochemical
Description: Solubility tests were performed with aliquots of compound 4 (1.2 mg) and 500 μl of each solvent.

[5] = Isomerization in solution observed by NMR; assay type: physicochemical
Description: These signals were tentatively attributed to a cis/trans isomer of compound 4. The signal intensities of this isomer accounted for approximately 10% of the signals due to the major product. In acetone-db, this isomerization was slower and occurred within days.

[6] = tested on: NF-kappaB; assay: Electrophoretic mobility shift assay (EMSA) for NF-kappaB in LPS stimulated THP-1 monocytic cells; assay type: cell-based; details: THP-1 cells; for NF-kappaB activation: LPS
Description: Electrophoretic Mobility Shift Assay (EMSA): THP-1 monocytic cells (DSM, Braunschweig, Germany) were maintained in suspension in RPMI 1640 (Glutamax-1, low endotoxin) containing 7% fetal calf serum (FCS) (Myoclone super plus, low endotoxin), 100 units/ml penicillin, and […] streptomycin (Life Technologies, Inc., Eggenstein, Germany). For the experiments, the cells were plated at a density of 3×10^6 per well in 6-well culture dishes. Nuclear extracts were prepared by harvesting cells by centrifugation at 1200 rpm for 7 min at 4° C. The cells were resuspended by adding 1 ml ice cold PBS and transferred into a microcentrifuge tube. After centrifugation at 2000 g for 2 min by 4° C. the pellet was lysed in 50 μl buffer A (10 mM Hepes, pH 7.9, 0.1% NP40, 10 mM, 300 mM Sucrose, 10 mM KCl, 15 mM MgCl2, 1 mM DTT, 0.5 mM PMSF and antipain, aprotinin, leupeptin each 0.75 μg/ml (Sigma)). After 5 min incubation on ice and centrifugation at 16000 g for 5 sec the pellet was washed with 100 μl buffer A. The nuclear pellet was resuspended with 100 μl buffer B (20 mM Hepes, pH 7.9, 100 mM KCl, 100 mM NaCl, 1 mM DTT, 20% Glycerol, 0.5 mM PMSF and antipain, aprotinin, leupeptin each 0.75 μg/ml (Sigma)) and sonicated for 10 sec. The probe was pulse centrifuged at 16000 g for 5 sec. The nuclear extract was aliquoted and snap-freeze in liquid N2. Nuclear extracts ([…] of protein) were incubated with radiolabeled DNA probes (10 ng; 10^5 cpm) for 30 min at room temperature in […] of binding buffer (20 mM HEPES, pH 7.9, 50 mM KCl, 1 mM dithiothreitol, 0.5 mM EDTA, 10% glycerol, 1 mg/ml bovine serum albumin, 0.2% Nonidet P-40, 50 ng of poly(dI-dC)/ml). […] The binding of Sp-1 and AP-1 was also analysed by EMSA using specific consensus oligonucleotides (Promega, Heidelberg, Germany) that were labeled with [γ-^32P]ATP (>5,000 Ci/mmol, NEN Life Science Products) and T4 polynucleotide kinase (Boehringer Mannheim). Gels were dried and analysed by autoradiography. […]

O=C(NN=Cc1ccccc1O)c1ccc([N+](=O)[O-])o1 [COM 68, 5-Nitro-furan-2-carboxylic acid (2-hydroxy-benzylidene)-hydrazide]
effect on IkappaB phosphorylation (Western blot), comparison of COM 73 and COM 54 family [1]: no effect | cell viability (WST staining) ([2]; HeLa cells, 33 and 100 μmol/L, one day): decreased cell viability | IC50 ([3]; after IL-1 stimulation (100 pg/ml)): 7.8 µM | IC50 ([3]; after TNF alpha stimulation (1 ng/ml)): 4.5 µM | Solubility ([4]; Acetone): ++++ (++++: 100% dissolved) | Solubility ([4]; DMSO): ++++ (++++: 100% dissolved) | Solubility ([4]; H2O): − (−: 0% dissolved) | Solubility ([4]; MeCN): +++ (+++: 80% dissolved) | Solubility ([4]; MeOH): + (+: 20% dissolved) | signal intensities of the isomer relative to the major product ([5]; DMSO-d6, rt): approximately 10% | time to appearance of second set of NMR signals (cis/trans isomer) ([5]; DMSO-d6, rt): within minutes | time of isomerization ([5]; acetone-d6): within days

O=C(N/N=C/c1ccc(/C=N/NC(=O)c2ccc([N+](=O)[O-])o2)cc1)c1ccc([N+](=O)[O-])o1 [Compound 54]
effect on IkappaB phosphorylation (Western blot), comparison of COM 73 and COM 54 family [1]: no effect | NF-kappaB activation ([6]; 12.5 μM and 25 μM): significantly affected | NF-kappaB activation ([6]; 50 μM and 100 μM): nearly completely abolished | reduced NF-kappaB-release ([6]; 100 μM, 1 h, LPS 1 μg/ml): 95% | decrease in metabolic activity compared with untreated control (WST-1) ([2]; HeLa cells, 30 μM, 3 h): no significant decrease | influence on cell viability (WST staining) ([2]; HeLa cells, 0.3 to 100 μmol/L, one day): no negative influence | toxicity for HeLa cells (WST-1) ([2]; concentrations and conditions of the described assays): not found to be toxic
